# Assay results reported in patent US20210284691A1, “CBX8 CHROMDOMAIN INHIBITORS AND THE USES THEREOF” (Purdue Research Foundation, priority 2019, published 2021).
# Square brackets hold non-standard residues; d marks the D form. Peptide text beside a SMILES is read from it. * marks the point of attachment. Tyr(3-Cl) = N[C@@H](Cc1ccc(O)c(Cl)c1)C(=O)O; Benzoyl(3,5-Cl2) = O=C(c1cc(Cl)cc(Cl)c1)*; Lys(Et2) = CCN(CC)CCCC[C@H](N)C(=O)O; Gly(cPent) = N[C@H](C(=O)O)C1CCCC1; NH(propargyl) = C#CCN*
# Key:
# Format in all cases: cell-based
# [1] = molecular target: T1, CBX8 binding to chromatin (Homo sapiens, UniProt Q9HC52); assay: ChIP-qPCR in K562 cells
# T1 construct: endogenous in cells; host or cells: Hs68 fibroblasts (A16); HEK293T (A19); K562 (A23)
# T1 sequence (Q9HC52 1-389): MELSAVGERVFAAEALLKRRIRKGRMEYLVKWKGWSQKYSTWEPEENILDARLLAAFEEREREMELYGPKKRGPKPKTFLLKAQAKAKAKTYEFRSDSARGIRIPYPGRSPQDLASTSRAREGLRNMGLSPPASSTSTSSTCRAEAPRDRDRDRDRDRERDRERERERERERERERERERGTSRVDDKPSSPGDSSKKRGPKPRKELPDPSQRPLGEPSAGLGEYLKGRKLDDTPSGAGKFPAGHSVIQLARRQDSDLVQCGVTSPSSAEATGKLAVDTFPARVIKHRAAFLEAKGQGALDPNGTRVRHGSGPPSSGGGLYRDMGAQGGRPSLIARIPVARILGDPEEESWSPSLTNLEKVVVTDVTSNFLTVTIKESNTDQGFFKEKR
# Experimental: (§1) FIGS. 11A-11E: Cellular Activity of CBX2 ChD Ligand. FIG. 11A) Relative cytosolic access of SW2_152F conjugated to a chloroalkane (SW2_152F-CA, SEQ ID NO: 28) was evaluated using chloroalkane penetration assay (CAPA). The half maximal cell penetration value (CP50) of SW2_152F-CA was determined for SW2_152F-CA and CBX8 inhibitor SW2_110A-CA. FIG. 11B) Chemoprecipitations from HEK293T nuclear lysates using biotinylated SW2_152F (SW2_152F-B, SEQ ID NO: 29) were analyzed using immunoblot analysis. FIG. 11C) Analysis and quantification of SW2_152F in abrogating bulk binding of endogenous CBX proteins to chromatin in HEK293T cells by Sequential Salt Extraction. FIG. 11D). Chromatin immunoprecipitation (ChIP) from K562 cells using antibodies against IgG, H3K27me3, CBX2 and CBX8 was followed by quantitative PCR of genomic regions near Tm9SF4 (negative locus), TCF21, Fyn-2, and PAX7. Cells were treated with 10 μM SW2_152F for 4 h prior to harvest. FIG. 11E) Chromatin immunoprecipitation (ChIP) in Hs68 fibroblast cells using antibodies against IgG, CBX7, and CBX8 followed by quantitative PCR of genomic regions at LMNB2 (negative locus), CCND2, and RUNX3. Cells were treated with 100 μM SW2_152F for 4 h prior to harvest. For all qPCR, error bars represent SEM n=3 biological replicates, p-values were calculated using two-tailed Student's t-test, * p<0.05, **=p<0.01, ***=p<0.001, ****=p<0.0001.
# (§2) ChIP-qPCR. After validating selectivity using lysate and bulk chromatin, we wanted to determine whether the inhibitor can disrupt CBX2 binding to chromatin in live cells. We used chromatin immunoprecipitation (ChIP) followed by quantitative PCR (ChIP-qPCR) of sites with CBX2, CBX8 and H3K27me3 enrichment in K562 ChIP-Seq datasets in ENCODE (M. Azkanaz, et al., Elife 2019). We evaluated effects of compound treatment at both 10 μM and 100 μM SW2_152F. […] In order to evaluate SW2_152F activity against a paralog with no binding to SW2_152F in vitro, CBX7 ChIP-qPCR was performed in Hs68 fibroblast cells, which have no detectable CBX2 expression (H. Pemberton, et al., Genome Biol. 2014).
# [2] = molecular target: T2, CBX2 binding to chromatin (Homo sapiens, UniProt Q14781); assay: ChIP-qPCR in K562 cells
# T2 construct: endogenous in cells; host or cells: HEK293T (A21); K562 (A22)
# Experimental: as §1, §2
# [3] = system: H3K27me3, AR, ENO2, N-Myc, CBX2 protein levels; assay: Western blotting of protein expression in VCaP_NED cells
# Excerpt: FIG. 12A). Neuroendocrine differentiation (NED) of prostate cancer induced by androgen deprivation. Representative pictures of LNCaP cells treated with normal media or charcoal-stripped serum (CSS) media for 6 days to induce neuroendocrine differentiation (LNCaP_NED). FIG. 12B). Transcriptional fold changes of KLK3/TMPRSS2/ENO2/CHGA were quantified normalized to control gene YWHAZ upon CSS media treatment for 6 or 9 days. FIG. 12C). Western blotting of CBX paralogs in LNCaP and LNCaP_NED cells generated from 14-day CSS treatment. FIG. 12D). Cell proliferation of LNCaP_NED following 5 days incubation with 2 or 10 μM SW2_152F. DMSO was used as negative control. FIG. 12E). LNCaP_NED cells were treated with 10 μM SW2_152F for 24 h-96 h. Cell morphology pictures were captured starting from 24 h. Average cell size were plotted at 24 h or 48 h for both DMSO group and compound treated group. FIG. 12F). LNCaP_NED cells were treated with 10 μM or 50 μM SW2_152F for 48 hours. Transcriptional fold change of genes (KLK3/TMPRSS2/AR/CBX2) were normalized to YWHAZ in LNCaP_NED cells with SW2_152F treatment or DMSO. FIG. 12G). LNCaP cells were treated with DMSO. LNCaP_NED cells were treated with DMSO, 10 μM GSK343 or 10 μM SW2_152F for 48 hours. Whole cell lysates were extracted for western blotting. FIG. 12H). LNCaP_NED cells were treated with DMSO or 10 μM SW2_152F for 4 hours before harvest. Binding of H3K27me3 and CBX2 at specific genomic sites (KLK3/TMPRSS2, e: enhancer, p: promoter) were evaluated using chromatin immunoprecipitation-qPCR. For all experiments in the figure, error bars represent SEM n=3 biological replicates, p-values were calculated using two-tailed Student's t-test, *=p<0.05, **=p<0.01, ***=p<0.001, ****=p<0.0001.
# In another androgen-sensitive prostate cancer cell line, VCaP, 6 days of androgen deprivation decreases AR protein expression and increases ENO2, N-Myc, H3K27me3 and CBX2 protein expression (FIG. 12G), similar to published findings (Y. Zhang, et al., 2018). Using this NED cell line (VCaP_NED), we tested how addition of EZH2 inhibitor GSK343 or CBX2 inhibitor SW2_152F affects protein expression changes during NED.
# T2 sequence (Q14781 whole entry): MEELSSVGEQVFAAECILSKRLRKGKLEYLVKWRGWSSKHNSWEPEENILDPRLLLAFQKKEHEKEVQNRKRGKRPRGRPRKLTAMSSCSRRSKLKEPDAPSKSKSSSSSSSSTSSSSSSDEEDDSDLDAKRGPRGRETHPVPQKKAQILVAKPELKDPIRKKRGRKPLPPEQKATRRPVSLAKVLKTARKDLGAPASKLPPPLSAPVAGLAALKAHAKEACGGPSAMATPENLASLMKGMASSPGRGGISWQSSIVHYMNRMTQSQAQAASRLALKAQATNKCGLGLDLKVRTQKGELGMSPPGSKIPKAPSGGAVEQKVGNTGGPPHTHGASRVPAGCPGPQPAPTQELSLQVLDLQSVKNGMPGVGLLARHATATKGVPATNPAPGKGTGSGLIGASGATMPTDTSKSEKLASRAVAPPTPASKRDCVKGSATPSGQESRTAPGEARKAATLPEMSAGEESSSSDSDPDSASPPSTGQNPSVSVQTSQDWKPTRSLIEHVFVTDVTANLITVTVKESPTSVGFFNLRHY
smiles,measurement,setting,value
"C#CCNC(=O)[C@H](CO)NC(=O)[C@H](CCCCN(CC)CC)NC(=O)[C@@H](NC(=O)[C@@H](NC(=O)[C@H](Cc1ccc(O)c(Cl)c1)NC(=O)c1cc(Cl)cc(Cl)c1)C1CCCC1)[C@@H](C)CC [SW2_152F] ({Benzoyl(3,5-Cl2)}-[Tyr(3-Cl)][Gly(cPent)]I[Lys(Et2)]S-{NH(propargyl)})","CBX8 binding, ChIP-qPCR","[1]; 10 μM, 4 h",not CBX8 binding
same,"CBX8 binding, ChIP-qPCR",[1]; 100 μM,significant reduction of both CBX2 and CBX8 binding
same,"CBX2 binding, ChIP-qPCR","[2]; 10 μM, 4 h",significant reduction of CBX2 binding
same,"CBX2 binding, ChIP-qPCR",[2]; 100 μM,significant reduction of both CBX2 and CBX8 binding
same,H3K27me3 levels,"[3]; 10 μM, 48 hours",does not
same,"AR, ENO2 and N-Myc expression",[3]; compared to DMSO,increase AR and decrease ENO2 and N-Myc expression
